Tests used:
Type in all cases: cell-based
[1] = system: SKW-3 cells expressing MBV28 (TRAV1-2/TRBV28) TCR; assay: MAIT cell activation assay, SKW-3 MBV28 TCR co-cultured with C1R.MR1; details: SKW-3 MBV28, ligand alone
Protocol: (§1) Next, we explored whether RF catabolites could activate SKW-3 cells expressing two different MAIT TCRs. Distinct responses of T cells expressing TCRs with varying TRBV chain usage reinforces the role of Vβ in modulating MAIT responses to various ligands ([Chancellor et al., 2023]; [Gherardin et al., 2016]; [Seneviratna et al., 2022]).The surface expression of CD69 was measured as a marker for activation of cells expressing the AF-7 (TRAV1-2/TRBV6-1) or MBV28 (TRAV1-2/TRBV28) TCRs after co-culture with C1R.MR1 cells and the ligands.
(§2) C1R.MR1 cells (1 x 10^5) were initially stained with CTV for 15 minutes and then incubated with RF catabolites for 20 h. […] Cells were subsequently stained with PE-Cy7-conjugated anti-CD69 (BD; 1:100) and PE-labelled anti-MR1 (26.5 clone; BD; 1:100), before analysis on LSRFortessa (BD Biosciences) flow cytometer. Activation of SKW-3-MAIT cells was reflected by the cell-surface CD69 expression.

[2] = system: MAIT cells in human PBMC; assay: Primary MAIT activation (CD69) in PBMCs; details: 16 h, ligand alone
[3] = system: MAIT cells in human PBMC; assay: MAIT cell proliferation in CTV-labeled PBMCs; details: day 7, 5-OP-RU 10 μM, RF ligands 100 μM
[4] = system: SKW-3 cells expressing AF-7 (TRAV1-2/TRBV6-1) TCR; assay: MAIT cell activation assay, SKW-3 AF-7 TCR co-cultured with C1R.MR1; details: SKW-3 AF-7, ligand alone
Protocol: as §1, §2

[5] = system: C1R.MR1 cells; assay: Intracellular total folded MR1 by flow cytometry (8F2.F9); details: C1R.MR1, 100 μM, 16 h
[6] = system: C1R.MR1^R9H cells; assay: Cell surface MR1 R9H quantification, C1R.MR1^R9H
Excerpt: We then tested the effect of the RF catabolites on the expression of two mutant versions of MR1 termed MR1^R9H ([Howson et al., 2020]) and MR1^K43A ([Reantragoon et al., 2013]). First, we tested the MR1^R9H mutant ([Howson et al., 2020]) which represents a rare, natural human polymorph. […] When C1R. […] Next, we tested sought to understand how the previously characterised Lys43A mutation affects ligand binding. […] While this is in line with the ability of these ligands to bind MR1, the reason for MR1^K43A cell surface accumulation is less clear. The most likely explanation is that these ligands bind ER-resident MR1^K43A, in line with our data using wild-type MR1; however, because the K43A mutation results in spontaneous MR1 surface egress, the presence of these stabilising ligands promotes enhanced trafficking and/or retention at the cell surface. We cannot rule out however that the ligands may also bind directly to surface MR1^K43A and slow down the recycling from cell surface.
The level of MR1 expressed on the cell surface was measured after the exposure to the investigated ligands as previously described ([Awad et al., 2020a]; [Wang et al., 2022a]). […] The PE fluorescence intensity reflects the surface MR1 level. The data was acquired with an LSRFortessa X-20 (BD Biosciences) and Diva software (BD Biosciences) and analyzed using FlowJo software (BD Biosciences).

[7] = system: C1R.MR1 cells; assay: Endo H treatment and western blot of intracellular MR1; details: C1R.MR1, 16 h; RF and catabolites 100 μM, Ac-6-FP 10 μM
Protocol: The downregulation of MR1 on the cell surface by the RF catabolites could be due to the depletion of the intracellular ER-resident MR1 pool, or by retention of MR1 in the ER, as shown for the DB28 ligand ([Salio et al., 2020]). To investigate this, C1R.MR1 cells were treated for 16 h with 100 μM of RF or RF catabolites, conditions which induce MR1 downregulation (Fig. 3A). Cells were lysed, and treated with endoglycosidase (Endo) H, to distinguish molecules that remain within the ER from those that have trafficked to the cell surface ([McWilliam et al., 2016]), then MR1 levels were assessed by immunoblotting (Fig. 3A).
Figure 3. […] S, Endo H–susceptible MR1; R, Endo H–resistant MR1. The Endo H–susceptible MR1 and Endo H–resistant MR1 fractions were quantified in at least two independent experiments. (b) Intracellular total MR1 level was also measured in C1R.MR1 cells by flow cytometry after treating the cells with the indicated ligands (100 μM) for 16h followed by permeabilization and staining with anti-MR1-PE (8F2.F9). Shown are the overlay histograms (top) and a bar chart depicting the geometric mean fluorescence intensity (gMFI) fold change of intracellular MR1 level (bottom) from three independent experiments performed in duplicates, with standard error (SEM) represented by the error bars. […]

Compound	CD69 surface expression (activation) [1]	CD69 expression on gated MAIT cells [2]	MAIT cell proliferation [3]	CD69 surface expression (activation) [4]	total level of folded MR1 (intracellular staining with 8F2.F9) [5]	MR1^R9H surface level [6]	Endo H-resistant MR1 [7]
CC(=O)C=Nc1c(NC[C@H](O)[C@H](O)[C@H](O)CO)[nH]c(=O)[nH]c1=O [5-OP-RU, 5-(2-oxopropylideneamino)-6-D-ribitylaminouracil, reference compound]	induced strong activation	induced robust CD69 upregulation	significantly proliferated	induced strong activation			
Nc1nc2ncc(C=O)nc2c(=O)[nH]1 [6-FP, 6-formylpterin, reference compound]	moderately reduced basal CD69 levels			moderately reduced basal CD69 levels			
CC(=O)Nc1nc2ncc(C=O)nc2c(=O)[nH]1 [Ac-6-FP, acetyl-6-FP, reference compound]					significantly increased	significantly increased	increase in MR1 of a higher molecular weight
